Paper PMC5397059, “Design, synthesis and structure-activity relationship study of wollamide B; a new potential anti TB agent” (PLoS ONE, 2017)
Values after ≈ are worked out from the molar mass of the structure shown. Values joined by “and” are separate entries in the source; they are usually repeats but may differ in a detail not shown here. Equal values may be shown once. Non-standard residues stand in square brackets, D forms with d. Residues, ends and D or L forms follow the SMILES beside them. dPhe(4-Cl) = N[C@H](Cc1ccc(Cl)cc1)C(=O)O; dOrn = NCCC[C@@H](N)C(=O)O

How the values were obtained:
[1] = Intrinsic clearance (CLint) assay, mouse liver microsomes; format: in vitro ADME; settings: for % LBF Mouse: liver blood flow; for CLint Mouse: mouse liver microsomes; for half-life at 0.5 µM: mouse, pooled mouse liver microsomes, pH 7.4, read-out: Microsomal t1/2 Mouse; for CLpred Mouse: predicted metabolic clearance
Method: (§1) Pooled mouse and human liver microsomes are purchased from Xenotech. Microsomes (final protein concentration 0.5 mg/mL, MgCl2 (final concentration = 5 mM) and test compound (final substrate concentration = 0.5] M; final DMSO concentration = 0.5%) in 0.1 M phosphate buffer pH 7.4 are pre-incubated at 37°C prior to the addition of NADPH (final concentration = 1 mM) to initiate the reaction. The final incubation volume is 600 μL.
(§2) Control incubation is included for each compound tested where 0.1 M phosphate buffer pH 7.4 is added instead of NADPH (minus NADPH). One control compound is included with each species. All incubations are performed singularly for each test compound. Each compound is incubated for 45 minutes and samples (100 μL) of incubate are taken at 0, 5, 15, 30 and 45 min. The control (minus NADPH) is sampled at 30 min only. The reactions are stopped by the addition of sample to 200 μL Acetonitrile: Methanol 3:1 containing internal standard. The terminated samples are centrifuged at 2,500 rpm for 20 min at 4°C to precipitate the protein. Quantitative analysis: following protein precipitation, the samples were analyzed using specific LC-MS/MS conditions. Data analysis: from a plot of ln peak area ratio (compound peak area/internal standard peak area) against time, the gradient of the line was determined. Subsequently, half-life and intrinsic clearance were calculated using the equations below: Eliminationrateconstant(K)=(−gradient) Halflife(t1/2)(min)=0.693/K Cli(mL/min/gprotien)=V×0.693/t1/2 WhereV=Incubationvolume(mL/gmicrosomalprotien)

Chrom logD assay = format: physicochemical; settings: pH 7.4; read-out: Log D
Method: The Chromatographic Hydrophobicity Index (CHI) values were measured using a reversed phase HPLC column (50 x 2 mmx 3 μMGemini NX C18, Phenomenex, UK) with fast acetonitrile gradient at starting mobile phase of 100% pH = 7.4 buffer. CHI values are derived directly from the gradient retention times by using a calibration line obtained for standard compounds. The CHI value approximates to the volume % organic concentration when the compound elutes. CHI is linearly transformed into ChromlogD by the formula: ChromlogD=0.0857CHI−2.00
The average error of the assay is ±3 CHI unit or ±0.25 ChromlogD.

[2] = Intrinsic clearance (CLint) assay, human liver microsomes; format: in vitro ADME; settings: for half-life at 0.5 µM: human, pooled human liver microsomes, pH 7.4, human liver microsomes, read-out: Microsomal t1/2 Human; for % LBF Human: liver blood flow; for CLpred Human: predicted metabolic clearance
Method: as §1, §2

Mtb H37Rv = settings: duplicate; analogues
[3] = Plasma stability assay, mouse plasma; format: in vitro ADME; settings: CD1, mouse, plasma; 2 hours at 37°C, triplicates; read-out: Plasma stability (% remaining) Mouse
Method: (§3) Plasma stability of the compounds was assessed in CD1 mouse and human plasma. Plasma was spiked with 1 μL of a 10 mM of each test compound solution to produce a 1 uM incubation. Three separate 300 μl aliquots were then taken from each tube and incubated at 37°C for 2 h. At each time point (0, 15, 30, 60 and 120 min), 50 μL of plasma were collected from each sample. Samples were extracted by protein precipitation with 250 μL of 0.1% AcOH acetonitrile methanol 3–1 (v/v) containing 1uM internal standard and centrifuged for 10min at 2800rpm. Supernatants were collected prior the injection onto an LC-MS/MS system. Analyte/Internal standard peak area ratios were referenced to the zero time-point samples as 100% in order to determine the percentage of compound remaining for each time-point. Ln plots of the % remaining for each compound were used to determine the half-life for the plasma incubations.

[4] = Chemi-Luminescent Nitrogen Detection (CLND) kinetic solubility assay; format: physicochemical; settings: phosphate buffered saline, pH 7.4; kinetic aqueous solubility by CLND; read-out: Solubility
Method: GSK in-house kinetic solubility assay: 5 μL of 10mM DMSO stock solution diluted to 100 uL with pH7.4 phosphate buffered saline, equilibrated for 1 hour at room temperature, filtered through Millipore Multiscreen HTS-PCF filter plates (MSSL BPC).
The filtrate is quantified by suitably calibrated flow injection CLND. The standard error of the CLND solubility determination is ±30 μM, the upper limit of the solubility is 500 μM when working from 10 mM DMSO stock solution.

[5] = Plasma stability assay, human plasma; format: in vitro ADME; settings: human, plasma; 2 hours at 37°C, triplicates; read-out: Plasma stability (% remaining) Human
Method: as §3

[6] = Artificial membrane permeability assay; format: in vitro ADME; settings: PAMPA, pH 7.4; passive artificial membrane permeability; read-out: Permeability
Method: A 8% L-a-phosphatidylcholine (EPC) in 1% cholesterol decane solution and a 1.8% EPC in cholesterol decane solution were prepared. The lipid solution was then aliquoted into 4 mL capped vials, sealed with parafilm and stored in-20°Cfreezer. The lipid solution was then transferred from 4 mL vial into 96-well half area plate (130μL/well) for daily assay usage. An additional 50 mM phosphate buffer with 0.5% encapsin, pH at 7.4 was prepared. The assay was run by the Biomek FX and Biomek software. The assay procedure is written under the Biomek software. For one batch assay, it can test two 96-well sample plates with at least one standard on each sample plate. The total assay time was about 4 hours. 3.5 μL of lipid solution were added to the filler plate, shaken for 12 seconds, and 250 μL of buffer were added to donor side and 100 μL to the receiver side. The assay plate was shaken for 45 min before adding the compounds. The test compounds (2.5 μL) were added to the donor side. The assay was run as replicates: Assay plates1 and 2 tested the sample plate 1; assay plates 3 and 4 tested the sample plate 2. The assay plates were then incubated and shaken for 3 hours at room temperature.
The assay samples were transferred to the HPLC analysis plates and 100 μL of receiver solution were aspirated and transferred to the receiver for analysis. Similarly, another 100 μL from the donor solution were transferred to the donor analysis plate.
Compound concentration was measured by HPLC at different time-points and permeability was established as nm/sec.

human serum albumin = human serum albumin (Homo sapiens, UniProt P02768); experiment: Human serum albumin (HSA) binding assay; format: in vitro ADME; settings: human serum albumin binding
human serum albumin, sequence (P02768 25-609): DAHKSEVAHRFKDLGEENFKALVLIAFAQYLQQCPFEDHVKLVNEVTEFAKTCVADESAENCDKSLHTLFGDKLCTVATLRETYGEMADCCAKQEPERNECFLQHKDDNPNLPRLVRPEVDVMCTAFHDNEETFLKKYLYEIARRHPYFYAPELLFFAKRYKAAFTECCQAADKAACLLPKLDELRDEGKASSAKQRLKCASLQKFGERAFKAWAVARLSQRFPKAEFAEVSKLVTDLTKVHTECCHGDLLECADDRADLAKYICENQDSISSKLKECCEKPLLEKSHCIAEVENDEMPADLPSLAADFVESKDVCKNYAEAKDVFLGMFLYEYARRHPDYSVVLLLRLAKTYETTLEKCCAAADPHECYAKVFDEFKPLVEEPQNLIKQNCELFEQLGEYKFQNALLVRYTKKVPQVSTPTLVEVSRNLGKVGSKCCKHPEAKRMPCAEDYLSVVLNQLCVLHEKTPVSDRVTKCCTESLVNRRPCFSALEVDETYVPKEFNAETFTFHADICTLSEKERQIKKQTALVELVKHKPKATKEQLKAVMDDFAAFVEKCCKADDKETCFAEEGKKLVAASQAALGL
Method: HSA binding assay was performed according to the method described by Valko K, et al. The basic principle of the measurements is the determination of gradient retention times of compounds on immobilized HSA column and converting these retention times to the appropriate property values using calibration. The peaks are detected and identified by UV. Calibration sets of compounds are measured before each run for which the HSA binding values are known. The retention times of the calibration set of compounds are plotted against these known values. The slope and the intercept of the obtained straight lines are used to calculate the HSA binding for the unknown compounds.

| SMILES | % LBF Mouse [1] | CLint Mouse [1] | half-life at 0.5 µM [1] | CLpred Mouse [1] | chromatographic logD (Chrom logD assay) | CLint Human ([2]; human liver microsomes) | half-life at 0.5 µM [2] | % LBF Human [2] | MIC against Mtb H37Rv (Mtb H37Rv) | remaining at 2 h, 1 uM [3] | solubility kinetic at 1 h [4] | remaining at 2 h, 1 uM [5] | Papp at 3 h [6] | % HSA (human serum albumin) | CLpred Human [2] | Microsomal t1/2 Human ([2]; human liver microsomes) | % LBF given as a fraction (metabolic stability class) ([2]; predicted hepatic clearance, microsomal stability) |
| --- | --- | --- | --- | --- | --- | --- | --- | --- | --- | --- | --- | --- | --- | --- | --- | --- | --- |
| CC(C)C[C@H]1NC(=O)[C@H](C)NC(=O)[C@H](Cc2c[nH]c3ccccc23)NC(=O)[C@@H](CCCN)NC(=O)[C@H](CC(N)=O)NC(=O)[C@H](C(C)C)NC1=O [Compound 2c] (cyclo(A[dL]VN[dOrn]W)) | <16.27% | <0.48 mL/min/g tissue | > 2.31 h | <20.50 mL/min/kg | 0.94 | <0.40 mL/min/g tissue | > 2.31 h | <35.08% | >80 µM | 93% | > 134 µg/mL | 107% | < 1 ×10⁻⁶ cm/s | 43.14% |  |  |  |
| CC(C)C[C@@H]1NC(=O)[C@H](C)NC(=O)[C@@H](CCCN)NC(=O)[C@H](CC(N)=O)NC(=O)[C@H](C(C)C)NC(=O)[C@@H](CC(C)C)NC1=O [Compound 3c] (cyclo(AL[dL]VN[dOrn])) | <16.27% | <0.48 mL/min/g tissue | > 2.31 h | <20.50 mL/min/kg |  | <0.40 mL/min/g tissue | > 2.31 h | <35.08% | >80 µM | 92% | 136 µg/mL (≈ 218 µM) | 86% |  | 26% and 25.51% | 6.31 mL/min/kg |  |  |
| CC(C)C[C@@H]1NC(=O)[C@H](Cc2c[nH]c3ccccc23)NC(=O)[C@@H](CCCN)NC(=O)[C@H](C)NC(=O)[C@H](C(C)C)NC(=O)[C@@H](CC(C)C)NC1=O [Compound 4c] (cyclo(A[dOrn]WL[dL]V)) | <16.27% | <0.48 mL/min/g tissue | > 2.31 h | <20.50 mL/min/kg | 2 | <0.40 mL/min/g tissue | > 2.31 h | <35.08% | 20 µM (≈ 13.9 µg/mL) | 100% | 143 µg/mL (≈ 205 µM) | 95% | < 0.3 ×10⁻⁶ cm/s | 83% and 82.76% | 6.31 mL/min/kg |  |  |
| CC(C)C[C@@H]1NC(=O)[C@H](Cc2c[nH]c3ccccc23)NC(=O)[C@@H](CCCN)NC(=O)[C@H](CC(N)=O)NC(=O)[C@H](C)NC(=O)[C@@H](CC(C)C)NC1=O [Compound 5c] (cyclo(AN[dOrn]WL[dL])) | <16.27% | <0.48 mL/min/g tissue | > 2.31 h | <20.50 mL/min/kg | 1.32 | <0.40 mL/min/g tissue | > 2.31 h | <35.08% | >80 µM | 96% | 129 µg/mL (≈ 181 µM) | 98% | < 1 ×10⁻⁶ cm/s | 56.76% | 6.31 mL/min/kg |  |  |
| CC(C)C[C@@H]1NC(=O)[C@H](Cc2c[nH]c3ccccc23)NC(=O)[C@@H](CCCN)NC(=O)[C@H](CC(N)=O)NC(=O)[C@H](C(C)C)NC(=O)[C@@H](C)NC1=O [Compound 6c] (cyclo(L[dA]VN[dOrn]W)) | <16.27% | <0.48 mL/min/g tissue | > 2.31 h | <20.50 mL/min/kg | 1.04 | 0.73 mL/min/g tissue | 1.25 h | 49.94% | >80 µM | 102% | ≥ 196 µg/mL | 95% | < 1 ×10⁻⁶ cm/s | 42.21% | 8.99 mL/min/kg |  |  |
| CC(C)C[C@@H]1NC(=O)[C@@H](Cc2ccc(Cl)cc2)NC(=O)[C@@H](CCCN)NC(=O)[C@H](CC(N)=O)NC(=O)[C@H](C(C)C)NC(=O)[C@@H](CC(C)C)NC1=O [Compound 14c] (cyclo(L[dL]VN[dOrn][dPhe(4-Cl)])) | <16.27% | <0.48 mL/min/g tissue | > 2.31 h | <20.50 mL/min/kg | 1.9 | <0.40 mL/min/g tissue | > 2.31 h | <35.08% | 40 µM (≈ 29.4 µg/mL) | 70% | ≥ 218 µg/mL | 104% | < 1 ×10⁻⁶ cm/s | 70.25% | 6.31 mL/min/kg |  |  |
| CC(C)C[C@@H]1NC(=O)[C@H](Cc2c[nH]c3ccccc23)NC(=O)[C@@H](CCCN)NC(=O)[C@H](CC(N)=O)NC(=O)[C@H](C(C)C)NC(=O)[C@@H](Cc2ccc(Cl)cc2)NC1=O [Compound 16c] (cyclo(L[dPhe(4-Cl)]VN[dOrn]W)) | 19.21% | 0.59 mL/min/g tissue | 1.89 h | 24.21 mL/min/kg | 1.92 | 2.43 mL/min/g tissue | < 0.5 h | 76.78% |  | 98% | ≥ 192 µg/mL | 99% | < 0.3 ×10⁻⁶ cm/s | 92% and 92.54% | 13.82 mL/min/kg | 0.3773 h | > ¾ |
